The source of these data is ChEMBL document CHEMBL4007427, “Inhibition of the Aldehyde Dehydrogenase 1/2 Family by Psoralen and Coumarin Derivatives” (J Med Chem, 2017).

For data set [1], the target named is T1, Aldehyde dehydrogenase X, mitochondrial (Homo sapiens, UniProt P30837).
T1 sequence (P30837 whole entry): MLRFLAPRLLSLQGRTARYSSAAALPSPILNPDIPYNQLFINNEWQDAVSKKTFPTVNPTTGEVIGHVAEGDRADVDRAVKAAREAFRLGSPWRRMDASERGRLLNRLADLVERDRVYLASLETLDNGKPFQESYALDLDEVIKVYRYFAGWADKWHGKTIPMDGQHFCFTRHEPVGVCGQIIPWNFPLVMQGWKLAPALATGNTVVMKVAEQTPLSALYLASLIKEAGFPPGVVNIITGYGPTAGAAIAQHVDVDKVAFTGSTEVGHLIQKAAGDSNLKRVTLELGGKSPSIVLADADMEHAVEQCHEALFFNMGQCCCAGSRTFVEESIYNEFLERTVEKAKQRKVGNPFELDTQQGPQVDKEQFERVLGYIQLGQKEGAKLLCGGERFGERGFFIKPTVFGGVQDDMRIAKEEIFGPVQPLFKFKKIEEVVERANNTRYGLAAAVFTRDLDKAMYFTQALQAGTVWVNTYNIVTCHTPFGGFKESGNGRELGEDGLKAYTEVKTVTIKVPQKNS
Description: Inhibition of full length recombinant human ALDH1B1 expressed in Escherichia coli TunerDE3 assessed as reduction in dehydrogenase activity by measuring NAD(P)H level preincubated for 2 mins followed by addition of propionaldehyde as substrate in presence of NAD+ by spectrophotometric method

Data set [2] has as its target T2, Aldehyde dehydrogenase, mitochondrial (Homo sapiens, UniProt P05091).
T2 sequence (P05091 whole entry): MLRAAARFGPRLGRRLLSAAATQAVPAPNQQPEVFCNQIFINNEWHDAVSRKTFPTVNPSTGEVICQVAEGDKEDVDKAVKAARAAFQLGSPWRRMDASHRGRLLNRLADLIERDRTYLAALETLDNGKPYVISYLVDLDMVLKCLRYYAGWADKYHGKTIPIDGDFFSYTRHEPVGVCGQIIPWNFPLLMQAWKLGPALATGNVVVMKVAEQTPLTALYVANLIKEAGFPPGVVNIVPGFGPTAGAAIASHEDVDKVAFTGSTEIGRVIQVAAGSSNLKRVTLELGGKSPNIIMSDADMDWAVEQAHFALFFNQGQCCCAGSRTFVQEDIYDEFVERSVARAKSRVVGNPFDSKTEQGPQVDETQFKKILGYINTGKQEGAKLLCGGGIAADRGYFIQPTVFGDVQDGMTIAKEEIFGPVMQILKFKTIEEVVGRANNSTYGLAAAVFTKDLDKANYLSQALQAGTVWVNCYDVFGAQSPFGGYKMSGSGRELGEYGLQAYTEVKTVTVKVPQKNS
Description: Inhibition of full length recombinant human ALDH2 expressed in Escherichia coli assessed as reduction in dehydrogenase activity by measuring NAD(P)H level preincubated for 2 mins followed by addition of propionaldehyde as substrate in presence of NAD+ by spectrophotometric method

In data set [3] the target is T3, Aldehyde dehydrogenase, mitochondrial (Homo sapiens) (UniProt P05091).
T3 sequence (whole entry): T2 sequence (P05091 whole entry)
Description: Inhibition of full length recombinant human ALDH2 expressed in Escherichia coli assessed as remaining dehydrogenase activity by measuring NAD(P)H level at 10 uM preincubated for 2 mins followed by addition of propionaldehyde as substrate in presence of NAD+ by spectrophotometric method.

In data set [4] the target is T4, Retinal dehydrogenase 2 (Homo sapiens, UniProt O94788).
T4 sequence (O94788 whole entry): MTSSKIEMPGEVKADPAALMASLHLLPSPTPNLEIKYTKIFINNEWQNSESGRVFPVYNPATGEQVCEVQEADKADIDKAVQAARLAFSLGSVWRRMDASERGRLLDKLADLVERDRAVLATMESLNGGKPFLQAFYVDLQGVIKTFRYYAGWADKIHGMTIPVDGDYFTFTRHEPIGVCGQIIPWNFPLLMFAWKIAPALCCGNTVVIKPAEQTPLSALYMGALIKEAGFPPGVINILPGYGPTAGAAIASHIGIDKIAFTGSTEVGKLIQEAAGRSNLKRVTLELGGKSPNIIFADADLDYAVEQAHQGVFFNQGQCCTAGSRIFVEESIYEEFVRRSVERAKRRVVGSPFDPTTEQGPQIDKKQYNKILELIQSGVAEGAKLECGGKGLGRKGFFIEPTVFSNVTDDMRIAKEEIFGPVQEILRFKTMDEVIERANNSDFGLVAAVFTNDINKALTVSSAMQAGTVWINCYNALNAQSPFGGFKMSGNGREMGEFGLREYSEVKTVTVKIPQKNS
Description: Inhibition of full length recombinant human ALDH1A2 expressed in Escherichia coli BL21(DE3) assessed as reduction in dehydrogenase activity by measuring NAD(P)H level preincubated for 2 mins followed by addition of propionaldehyde as substrate in presence of NAD+ by spectrophotometric method

Data set [5] deals with T5, Aldehyde dehydrogenase 1A1 (Homo sapiens) (UniProt P00352).
T5 sequence (whole entry): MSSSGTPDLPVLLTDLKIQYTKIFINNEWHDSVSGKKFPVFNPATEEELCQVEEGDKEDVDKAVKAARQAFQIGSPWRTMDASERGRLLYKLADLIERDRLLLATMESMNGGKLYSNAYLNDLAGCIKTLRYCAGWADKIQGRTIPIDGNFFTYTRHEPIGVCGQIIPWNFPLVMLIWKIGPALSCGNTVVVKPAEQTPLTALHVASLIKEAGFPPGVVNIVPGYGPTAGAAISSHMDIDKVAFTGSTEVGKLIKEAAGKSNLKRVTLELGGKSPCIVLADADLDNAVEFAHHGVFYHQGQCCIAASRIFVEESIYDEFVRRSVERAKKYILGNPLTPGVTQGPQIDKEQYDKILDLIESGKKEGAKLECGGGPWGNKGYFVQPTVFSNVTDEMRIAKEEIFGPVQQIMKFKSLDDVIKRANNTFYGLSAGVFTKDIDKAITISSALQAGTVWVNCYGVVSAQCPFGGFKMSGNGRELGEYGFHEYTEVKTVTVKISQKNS
Put plainly: Inhibition of full length recombinant human ALDH1A1 expressed in Escherichia coli BL21(DE3) assessed as remaining dehydrogenase activity by measuring NAD(P)H level at 10 uM preincubated for 2 mins followed by addition of propionaldehyde as substrate in presence of NAD+ by spectrophotometric method.

Data set [6] in a line: Lipophilicity, log P of the compound. The class given is physicochemical. Conditions: octanol/water.
In data set [7] the target is T6, Aldehyde dehydrogenase, dimeric NADP-preferring (Homo sapiens) (UniProt P30838).
T6 sequence (whole entry): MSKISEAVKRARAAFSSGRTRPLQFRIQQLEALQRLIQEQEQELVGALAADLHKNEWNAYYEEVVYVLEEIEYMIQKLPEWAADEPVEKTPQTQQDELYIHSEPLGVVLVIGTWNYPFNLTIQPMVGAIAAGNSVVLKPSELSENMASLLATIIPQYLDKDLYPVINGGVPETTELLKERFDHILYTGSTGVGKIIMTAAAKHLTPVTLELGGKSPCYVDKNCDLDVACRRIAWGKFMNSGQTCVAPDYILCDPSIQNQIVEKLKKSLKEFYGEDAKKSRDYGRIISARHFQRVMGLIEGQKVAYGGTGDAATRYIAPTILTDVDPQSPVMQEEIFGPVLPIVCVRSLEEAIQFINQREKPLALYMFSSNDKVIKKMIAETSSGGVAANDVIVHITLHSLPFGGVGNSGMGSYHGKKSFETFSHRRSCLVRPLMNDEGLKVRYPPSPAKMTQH
Put plainly: Inhibition of full length recombinant human ALDH3A1 expressed in Escherichia coli BL21(DE3) assessed as remaining dehydrogenase activity by measuring NAD(P)H level at 10 uM preincubated for 2 mins followed by addition of propionaldehyde as substrate in presence of NAD+ by spectrophotometric method.

On to `CCCc1c(C)c2cc3c(C)c(C)oc3cc2oc1=O`, for which the IC50 in data set [1] is 360 nM; in data set [2] it was 110 nM; in data set [4], 300 nM. Further, the Activity in data set [3] amounted to 1.61%; in data set [5], 36.3%; in data set [7] it was 86.3%. For the same compound, the logP in data set [6] stood at 4.92.

For `COC(=O)C(C)Oc1ccc2c(C)cc(=O)oc2c1` (configuration not stated), in data set [2], the IC50 amounted to 1500 nM. In addition, the Activity in data set [3] came to 5.72%; in data set [5], 84.8%. This compound came in with a lipophilicity (logP) in data set [6] of 1.9.

Consider `Cc1oc2cc3oc(=O)c(CCC(=O)N4CCCCC4)c(C)c3cc2c1C`, for which the results for the IC50 in data set [1], in data set [2] and in data set [4] were 2600 nM, 2000 nM and 1600 nM, respectively. Also, the Activity is 3.8% in data set [3], 8.69% in data set [5] and 105% in data set [7]. In data set [6], the logP was 4.06.

On to `CCCc1cc(=O)oc2cc3oc(C)c(C)c3cc12`, for which the IC50 in data set [1] amounted to 86 nM; in data set [2], 360 nM; in data set [4], 69 nM. In addition, the Activity is 23.8% in data set [3], 74.1% in data set [5] and 80.4% in data set [7]. The compound further yielded a logP in data set [6] of 4.47.

Regarding `Cc1oc2cc3oc(=O)c4c(c3cc2c1C)CCC4`, the IC50 stood at 160 nM in data set [1], 67 nM in data set [2] and 130 nM in data set [4]. In addition, the values for the Activity in data set [3], in data set [5] and in data set [7] were 8.25%, 50.8% and 87.1%, respectively. For the same compound, the logP in data set [6] is 4.26.

On to `CCCc1c(C)c2cc3c(C)coc3cc2oc1=O`, for which the IC50 worked out at 880 nM in data set [1], 340 nM in data set [2] and 760 nM in data set [4]. In addition, the Activity in data set [3] is 6.25%; in data set [5], 48.6%; in data set [7] it was 96.1%. In data set [6], this compound came in with a logP of 4.47.

Consider `Cc1oc2cc3oc(=O)c(C)c(C)c3cc2c1C`, for which the IC50 in data set [1] was determined as 310 nM; in data set [4], 330 nM. The Activity in data set [3] is 19.5%; in data set [5], 90.5%; in data set [7] it was 95.3%. For the same compound, the logP in data set [6] worked out at 4.39.

With `C/C(=N\O)c1cc2cc(Br)ccc2oc1=O`, in data set [2], the midpoint of inhibition, the IC50, lay at 4600 nM. Further, the Activity turned out to be 48.2% in data set [3], 96% in data set [5] and 91.7% in data set [7]. The same compound returned a logP in data set [6] of 2.1.

With `Cc1oc2cc3oc(=O)c4c(c3cc2c1C)CCCC4`, the IC50 was 95 nM in data set [1], 67 nM in data set [2] and 65 nM in data set [4]. Besides, the figures for the Activity in data set [3], in data set [5] and in data set [7] were 16.3%, 56.3% and 94.1%, respectively. In data set [6], this compound yielded a logP of 4.27.
